Experiment [1] addresses T1, Taste receptor type 2 member 46 (Homo sapiens, UniProt P59540).
T1 sequence (P59540 whole entry): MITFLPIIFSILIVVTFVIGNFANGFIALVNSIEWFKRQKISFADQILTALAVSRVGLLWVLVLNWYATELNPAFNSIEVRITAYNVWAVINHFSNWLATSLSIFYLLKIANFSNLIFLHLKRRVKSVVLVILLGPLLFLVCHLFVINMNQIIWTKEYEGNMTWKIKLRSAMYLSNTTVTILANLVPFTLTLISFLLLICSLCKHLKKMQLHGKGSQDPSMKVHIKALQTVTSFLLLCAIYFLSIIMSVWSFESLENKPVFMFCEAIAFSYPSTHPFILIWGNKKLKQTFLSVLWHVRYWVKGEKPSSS
Briefly: Antagonist activity at recombinant human N-terminal rat ST3 receptor-fused TAS2R46 expressed in HEK293T cells co-expressing Galpha16gust44 assessed as inhibition of 3 uM strychnine-induced intracellular calcium level by FLIPR assay. Format: functional, cell-based.

Experiment [2] deals with T1, Taste receptor type 2 member 46. Briefly: Activity at recombinant human N-terminal rat ST3 receptor-fused TAS2R46 expressed in HEK293T cells co-expressing Galpha16gust44 assessed as activation of 3 uM strychnine-induced intracellular calcium level by FLIPR assay. Format: functional, cell-based. (A change in cytosolic calcium serves as a functional read-out for many receptors and channels.)

Regarding `C/C1=C\CC(=O)/C(C)=C/[C@H]2OC(=O)[C@@H](C)C2CC1` (some centres undefined), the IC50 (usually the point on the concentration scale where inhibition reaches its midpoint) in experiment [1] worked out at 97.8 µM.
On to `C=C1C(=O)O[C@@H]2/C=C(\C)CC/C=C(\C)CCC12` (some centres undefined), for which the EC50 – broadly, the concentration that produces a half-maximal response – in experiment [2] was found to be 8.6 µM.
With `C/C1=C\[C@H]2OC(=O)[C@@H](C)C2CC/C(C)=C/CC1` (some centres undefined), the EC50 in experiment [2] came out at 8.3 µM.
In the case of `CC(=O)O[C@H]1C/C=C(\C)CCC2[C@H](C)C(=O)O[C@@H]2/C=C/1C` (some centres undefined), the EC50 in experiment [2] is 1.1 µM.

Source of the values: ChEMBL document CHEMBL4421717, “Antagonists and agonists of bitter taste receptors and uses thereof” (2012).
